# Laboratory results taken from patent US20040063662A1, “Selenophene anti-tumor agents” (priority 1996, published 2004).
# Assays:
# RPMI-8226 = assay: NCI human tumor cell panel: RPMI-8226 (Leukemia); format: cell-based
# CCRF-CEM = assay: NCI human tumor cell panel: CCRF-CEM (Leukemia); format: cell-based
# SK-MEL-2 = assay: NCI human tumor cell panel: SK-MEL-2 (Melanoma); format: cell-based
# SR = assay: NCI human tumor cell panel: SR (Leukemia); format: cell-based
# SF-295 = assay: NCI human tumor cell panel: SF-295 (CNS Cancer); format: cell-based
# MDA-MB-435 = assay: NCI human tumor cell panel: MDA-MB-435 (Breast Cancer); format: cell-based; conditions: MDA-MB-435, read-out: Log10 GI50 (converted)
# SW-620 = assay: NCI human tumor cell panel: SW-620 (Colon Cancer); format: cell-based
# M14 = assay: NCI human tumor cell panel: M14 (Melanoma); format: cell-based
# NCI-H23 = assay: NCI human tumor cell panel: NCI-H23 (Non-Small Cell Lung Cancer); format: cell-based
# SNB-75 = assay: NCI human tumor cell panel: SNB-75 (CNS Cancer); format: cell-based
# LOX IMVI = assay: NCI human tumor cell panel: LOX IMVI (Melanoma); format: cell-based
# MDA-N = assay: NCI human tumor cell panel: MDA-N (Breast Cancer); format: cell-based
# MCF7/ADR-RES = assay: NCI human tumor cell panel: MCF7/ADR-RES (Breast Cancer); format: cell-based
# DU-145 = assay: NCI human tumor cell panel: DU-145 (Prostate Cancer); format: cell-based
# UACC-257 = assay: NCI human tumor cell panel: UACC-257 (Melanoma); format: cell-based
# SN12C = assay: NCI human tumor cell panel: SN12C (Renal Cancer); format: cell-based
# A498 = assay: NCI human tumor cell panel: A498 (Renal Cancer); format: cell-based
# SK-MEL-5 = assay: NCI human tumor cell panel: SK-MEL-5 (Melanoma); format: cell-based
# IGROV1 = assay: NCI human tumor cell panel: IGROV1 (Ovarian Cancer); format: cell-based
# HS 578T = assay: NCI human tumor cell panel: HS 578T (Breast Cancer); format: cell-based
# OVCAR-4 = assay: NCI human tumor cell panel: OVCAR-4 (Ovarian Cancer); format: cell-based; conditions: OVCAR-4, read-out: Log10 GI50 (converted)
# 786-0 = assay: NCI human tumor cell panel: 786-0 (Renal Cancer); format: cell-based
# NCI-H460 = assay: NCI human tumor cell panel: NCI-H460 (Non-Small Cell Lung Cancer); format: cell-based
# HOP-62 = assay: NCI human tumor cell panel: HOP-62 (Non-Small Cell Lung Cancer); format: cell-based
# OVCAR-5 = assay: NCI human tumor cell panel: OVCAR-5 (Ovarian Cancer); format: cell-based
# OVCAR-8 = assay: NCI human tumor cell panel: OVCAR-8 (Ovarian Cancer); format: cell-based
# SF-539 = assay: NCI human tumor cell panel: SF-539 (CNS Cancer); format: cell-based
# UO-31 = assay: NCI human tumor cell panel: UO-31 (Renal Cancer); format: cell-based
# BT-549 = assay: NCI human tumor cell panel: BT-549 (Breast Cancer); format: cell-based
# HOP-92 = assay: NCI human tumor cell panel: HOP-92 (Non-Small Cell Lung Cancer)
# UACC-62 = assay: NCI human tumor cell panel: UACC-62 (Melanoma); format: cell-based
# MCF7 = assay: NCI human tumor cell panel: MCF7 (Breast Cancer); format: cell-based
# [1] = read-out: Log10 GI50 (converted)
# [2] = read-out: Log10 TGI (converted)
compound,measurement,setting,value
OCc1ccc(-c2ccc(-c3ccc(CO)[se]3)s2)[se]1 [compound 676632],GI50,"RPMI-8226; RPMI-8226, read-out: Log10 GI50 (converted)",> 100 µM
same,IC (TGI),"RPMI-8226; RPMI-8226, read-out: Log10 TGI",> 100 µM
same,GI50,CCRF-CEM; [1],87.1 µM
same,IC (TGI),CCRF-CEM; [2],> 100 µM
same,GI50,"SK-MEL-2; SK-MEL-2, read-out: Log10 GI50 (converted)",> 100 µM
same,IC (TGI),"SK-MEL-2; SK-MEL-2, read-out: Log10 TGI (converted)",> 100 µM
same,GI50,SR; [1],> 100 µM
same,IC (TGI),SR; [2],> 100 µM
same,GI50,"SF-295; SF-295, read-out: Log10 GI50 (converted)",> 100 µM
same,IC (TGI),"SF-295; SF-295, read-out: Log10 TGI (converted)",> 100 µM
same,GI50,MDA-MB-435,> 100 µM
same,GI50,"SW-620; SW-620, read-out: Log10 GI50 (converted)",> 100 µM
same,IC (TGI),"SW-620; SW-620, read-out: Log10 TGI (converted)",> 100 µM
same,GI50,"M14; M14, read-out: Log10 GI50 (converted)",> 100 µM
same,IC (TGI),"M14; M14, read-out: Log10 TGI (converted)",> 100 µM
same,GI50,"NCI-H23; NCI-H23, read-out: Log10 GI50 (converted)",> 100 µM
same,IC (TGI),"NCI-H23; NCI-H23, read-out: Log10 TGI (converted)",> 100 µM
same,GI50,"SNB-75; SNB-75, read-out: Log10 GI50 (converted)",> 100 µM
same,IC (TGI),"SNB-75; SNB-75, read-out: Log10 TGI (converted)",> 100 µM
same,GI50,LOX IMVI; [1],> 100 µM
same,IC (TGI),LOX IMVI; [2],< 100 µM
same,GI50,MDA-N; [1],> 100 µM
same,IC (TGI),MDA-N; [2],> 100 µM
same,GI50,MCF7/ADR-RES; [1],> 100 µM
same,IC (TGI),MCF7/ADR-RES; [2],> 100 µM
same,GI50,"DU-145; DU-145, read-out: Log10 GI50 (converted)",95.5 µM
same,IC (TGI),"DU-145; DU-145, read-out: Log10 TGI (converted)",> 100 µM
same,GI50,"UACC-257; UACC-257, read-out: Log10 GI50 (converted)",0.0214 µM
same,IC (TGI),"UACC-257; UACC-257, read-out: Log10 TGI (converted)",> 100 µM
same,GI50,SN12C; [1],> 100 µM
same,IC (TGI),SN12C; [2],> 100 µM
same,GI50,"A498; A498, read-out: Log10 GI50 (converted)",0.0186 µM
same,IC (TGI),"A498; A498, read-out: Log10 TGI (converted)",0.0427 µM
same,GI50,"SK-MEL-5; SK-MEL-5, read-out: Log10 GI50 (converted)",63.1 µM
same,IC (TGI),"SK-MEL-5; SK-MEL-5, read-out: Log10 TGI (converted)",> 100 µM
same,GI50,"IGROV1; IGROV-1, IGROV1, read-out: Log10 GI50 (converted)",0.0324 µM
same,IC (TGI),"IGROV1; IGROV-1, IGROV1, read-out: Log10 TGI (converted)",0.275 µM
same,GI50,HS 578T; [1],> 100 µM
same,IC (TGI),HS 578T; [2],> 100 µM
same,GI50,OVCAR-4,0.135 µM
same,GI50,"786-0; 786-0, read-out: Log10 GI50 (converted)",> 100 µM
same,IC (TGI),"786-0; 786-0, read-out: Log10 TGI (converted)",> 100 µM
same,GI50,"NCI-H460; NCI-H460, read-out: Log10 GI50 (converted)",0.0468 µM
same,IC (TGI),"NCI-H460; NCI-H460, read-out: Log10 TGI (converted)",> 100 µM
same,GI50,"HOP-62; HOP-62, read-out: Log10 GI50 (converted)",0.0759 µM
same,IC (TGI),"HOP-62; HOP-62, read-out: Log10 TGI (converted)",> 100 µM
same,GI50,"OVCAR-5; OVCAR-5, read-out: Log10 GI50 (converted)",0.0132 µM
same,IC (TGI),"OVCAR-5; OVCAR-5, read-out: Log10 TGI (converted)",0.0776 µM
same,GI50,"OVCAR-8; OVCAR-8, read-out: Log10 GI50 (converted)",> 100 µM
same,IC (TGI),"OVCAR-8; OVCAR-8, read-out: Log10 TGI (converted)",> 100 µM
same,GI50,"SF-539; SF-539, read-out: Log10 GI50 (converted)",> 100 µM
same,IC (TGI),"SF-539; SF-539, read-out: Log10 TGI (converted)",> 100 µM
same,GI50,"UO-31; UO-31, read-out: Log10 GI50 (converted)",> 100 µM
same,IC (TGI),"UO-31; UO-31, read-out: Log10 TGI (converted)",> 100 µM
same,GI50,"BT-549; BT-549, read-out: Log10 GI50 (converted)",0.195 µM
same,IC (TGI),"BT-549; BT-549, read-out: Log10 TGI (converted)",> 100 µM
same,GI50,"HOP-92; HOP-92, read-out: Log10 GI50 (converted)",> 100 µM
same,CC50,"HOP-92; HOP-92, read-out: Log10 LC50 (converted)",> 100 µM
same,IC (TGI),"HOP-92; HOP-92, read-out: Log10 TGI",> 100 µM
same,GI50,"UACC-62; UACC-62, read-out: Log10 GI50 (converted)",0.0224 µM
same,IC (TGI),"UACC-62; UACC-62, read-out: Log10 TGI (converted)",0.0562 µM
same,GI50,"MCF7; MCF7, read-out: Log10 GI50 (converted)",0.0123 µM
same,IC (TGI),"MCF7; MCF7, read-out: Log10 TGI (converted)",> 100 µM
